# Experimental data: patent publication US20260184704A1, “NLRP3 INFLAMMASOME INHIBITORS AND USES THEREOF” (Insilico Medicine IP Limited, priority 2023, published 2026)
# Key:
# hERG = biological target: T1, hERG (Homo sapiens, UniProt Q12809); experiment: hERG Screening Assay Using Electrophysiological Manual Patch-Clamp (Example B-5); format: cell-based; settings: hERG-CHO cells, whole-cell manual patch clamp, room temperature; read-out: hERG inhibition_IC50 (μM), Example B-5
# T1 construct: expressed in transfected cells
# T1 sequence (Q12809 whole entry): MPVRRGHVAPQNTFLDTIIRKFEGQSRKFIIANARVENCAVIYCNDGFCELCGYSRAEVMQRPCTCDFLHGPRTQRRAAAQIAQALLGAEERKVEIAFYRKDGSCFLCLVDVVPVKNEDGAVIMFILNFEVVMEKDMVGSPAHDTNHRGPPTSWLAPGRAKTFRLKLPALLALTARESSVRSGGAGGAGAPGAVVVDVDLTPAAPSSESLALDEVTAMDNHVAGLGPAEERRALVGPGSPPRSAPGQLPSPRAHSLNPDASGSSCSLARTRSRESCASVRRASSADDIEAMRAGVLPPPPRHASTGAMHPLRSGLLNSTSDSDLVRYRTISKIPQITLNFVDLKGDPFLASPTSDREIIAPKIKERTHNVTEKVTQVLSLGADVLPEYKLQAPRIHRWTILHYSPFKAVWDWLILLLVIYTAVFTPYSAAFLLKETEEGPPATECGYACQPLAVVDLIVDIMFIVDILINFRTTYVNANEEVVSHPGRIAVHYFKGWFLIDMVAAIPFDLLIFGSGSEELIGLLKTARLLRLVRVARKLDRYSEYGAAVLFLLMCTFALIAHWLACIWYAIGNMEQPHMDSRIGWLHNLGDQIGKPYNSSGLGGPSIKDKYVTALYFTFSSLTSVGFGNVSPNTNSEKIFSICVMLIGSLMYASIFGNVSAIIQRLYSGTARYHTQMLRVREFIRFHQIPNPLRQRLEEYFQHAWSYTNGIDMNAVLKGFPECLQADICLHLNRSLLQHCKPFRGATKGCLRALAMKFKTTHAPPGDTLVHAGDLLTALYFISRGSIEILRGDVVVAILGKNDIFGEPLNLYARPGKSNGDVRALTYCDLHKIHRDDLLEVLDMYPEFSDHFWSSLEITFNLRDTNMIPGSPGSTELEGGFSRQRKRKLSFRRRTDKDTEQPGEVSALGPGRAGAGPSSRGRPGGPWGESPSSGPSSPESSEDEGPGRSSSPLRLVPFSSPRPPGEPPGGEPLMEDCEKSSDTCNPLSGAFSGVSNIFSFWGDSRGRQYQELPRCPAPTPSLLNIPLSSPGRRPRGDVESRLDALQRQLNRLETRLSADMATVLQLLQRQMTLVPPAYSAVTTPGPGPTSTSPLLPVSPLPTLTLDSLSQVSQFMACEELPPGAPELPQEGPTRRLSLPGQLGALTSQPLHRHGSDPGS
# Experimental: Example B-5: hERG Screening Assay Using Electrophysiological Manual Patch-Clamp
# Cell lines: hERG-CHO cells
# Method: CHO cells stably expressing the transcript of hERG were investigated by whole-cell manual patch clamp technique. hERG-CHO cells were cultured in 35 mm dishes to a maximum 70-80% confluence at 37° C. 5% CO2 incubator. The culture media (F12 medium (Invitrogen 11765062, ThermoFisher, USA) supplemented with 10% fetal bovine serum (Invitrogen 10099141, ThermoFisher, USA), 100 μg/mL G418 (Invitrogen 11811023, ThermoFisher, USA) and 100 μg/mL Hygromycin B (Invitrogen 10687010, ThermoFisher, USA)) was removed and the hERG-CHO cells were washed with extracellular solution (in mM): 140 NaCl, 5 KCl, 1 CaCl2), 1.25 MgCl2, 10 HEPES and 10 Glucose, pH 7.4 with NaOH. Then the cells were dissociated with 0.25% Trypsin-EDTA for 3-5 min, after that, the digestion solution was removed and the cells were resuspended in the extracellular solution with pipette by pipetting up and down several times. Resuspended cells were transferred to dishes for recording and cells were perfused with extracellular solution. Electrodes (a tip resistance of 3-5 MegOhm) were pulled from borosilicate grass pipette (Sutter instrument BF150-86-10) and filled with intracellular solution (in mM): 140 KCl, 1 MgCl2, 1 CaCl2), 10 EGTA and 10 HEPES, pH 7.2 with KOH. Data were obtained using a patch-clamp amplifier, signals were filtered at 2 kHz and sampled at frequencies of 10 kHz using pClamp 10 software. The cells were held at −100 mV and hERG potassium currents were activated by a 2 s depolarization potential of +20 mV followed by a repolarization potential of −50 mV for Is then back to the holding potential. Experiments were performed at room temperature.
# Data analysis: Data were retrieved and analyzed using pClamp 10, GraphPad Prism 8 and Excel software. The peak amplitude of hERG currents were measured using clampfit and exported to Excel and GraphPad Prism 8 for subsequent analysis.
# where Y is the inhibition % corresponding to X, [X] is the Log value of concentration of compound in the external solution and HillSlope is the Hill coefficient. The ratio of inhibition was calculated by using the equation: Inhibition=(1−I/Io)*100%, where Io and I are the current amplitude measured in control and in the presence of compounds, respectively. n is not less than 2 cells for each concentration.
# Results: Compounds IC50 on hERG and concentration-response curves
# [1] = test system: THP-1 cells, IL-1β release; experiment: IL-1β Release THP-1 Assay (Example B-3); format: cell-based; settings: Homo sapiens; PMA-differentiated THP-1 cells, LPS then Nigericin, IL-1β by Elisa; read-out: Potency, THP-1 IL-1β, IC50 (nM), Example B-3
# Experimental: Example B-3: IL-1β Release THP-1 Assay
# THP-1 cells Culture RPMI1640 medium, 10% FBS, 1% PS, 55 uM β-Mer at 37° C. & 5% CO2 incubator.
# IL-1β Release Detection • 1) Seed THP-1 in complete RPMI 1640 medium containing PMA into 96 well plate coated with poly-L-lysin incubate for 24 hours. • 2) Remove medium, wash the differentiated THP-1 cells with PBS, add FBS free RPMI 1640 medium. • 3) Add LPS and incubate for 3 hours at 37° C. & 5% CO2 incubator. • 4) Add compounds and incubate for 30 minutes at 37° C. & 5% CO2 incubator. • 5) Add Nigericin and incubate for 1 hour at 37° C. & 5% CO2 incubator. • 6) Collect supernatant to test IL-1β by Elisa.
# • a) Assay robustness check with DMSO and Low control data:
# [formula] • X: cpd concentration • Y: change % • Top and Bottom: Plateaus in same units as Y • logIC50: same log units as X • HillSlope: Slope factor or Hill slope
# NLRP3 = biological target: T2, NLRP3 (Homo sapiens, UniProt Q96P20); experiment: NLRP3 Enzymatic Activity ADP-Glo Assay (Example B-4); format: biochemical; settings: hydrolysis of ATP by NLRP3; NLRP3 15 nM, ATP 1 μM; read-out: NLRP3_ADP-Glo_IC50 (nM), Example B-4
# T2 construct: purchased ICE YM2306T-H06MHS
# T2 sequence (Q96P20 whole entry): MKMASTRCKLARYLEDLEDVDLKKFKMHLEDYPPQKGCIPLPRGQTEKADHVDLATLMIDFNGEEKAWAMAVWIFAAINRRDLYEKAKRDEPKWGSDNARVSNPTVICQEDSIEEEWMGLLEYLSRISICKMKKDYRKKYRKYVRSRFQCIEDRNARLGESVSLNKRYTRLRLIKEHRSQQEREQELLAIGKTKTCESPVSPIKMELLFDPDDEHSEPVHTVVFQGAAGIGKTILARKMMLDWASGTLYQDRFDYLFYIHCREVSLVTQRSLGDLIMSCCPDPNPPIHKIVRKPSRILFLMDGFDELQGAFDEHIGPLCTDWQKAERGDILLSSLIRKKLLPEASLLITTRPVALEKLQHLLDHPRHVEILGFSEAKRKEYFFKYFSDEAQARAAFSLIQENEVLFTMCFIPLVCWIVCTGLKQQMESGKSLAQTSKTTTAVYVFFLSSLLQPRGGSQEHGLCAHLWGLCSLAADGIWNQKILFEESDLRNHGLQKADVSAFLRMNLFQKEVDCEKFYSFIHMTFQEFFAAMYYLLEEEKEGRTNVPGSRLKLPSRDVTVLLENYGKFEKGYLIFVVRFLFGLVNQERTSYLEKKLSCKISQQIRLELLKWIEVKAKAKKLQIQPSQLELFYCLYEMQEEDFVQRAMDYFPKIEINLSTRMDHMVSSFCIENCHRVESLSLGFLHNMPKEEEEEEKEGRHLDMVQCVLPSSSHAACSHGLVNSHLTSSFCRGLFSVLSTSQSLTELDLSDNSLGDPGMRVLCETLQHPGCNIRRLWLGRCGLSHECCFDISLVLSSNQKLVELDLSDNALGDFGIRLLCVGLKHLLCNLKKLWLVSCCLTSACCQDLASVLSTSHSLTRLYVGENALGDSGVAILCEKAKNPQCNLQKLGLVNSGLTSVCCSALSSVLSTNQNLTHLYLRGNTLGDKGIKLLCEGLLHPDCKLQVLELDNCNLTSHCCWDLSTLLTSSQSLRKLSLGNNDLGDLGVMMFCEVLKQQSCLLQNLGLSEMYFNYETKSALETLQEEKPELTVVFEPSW
# Experimental: Example B-4: NLRP3 Enzymatic Activity ADP-Glo Assay
# NLRP3 activity test experiment, measuring the hydrolysis of NLRP3 on the substrate ATP using the ADP-Glo assay. First, after adding an inhibitor containing 0.5% DMSO with Echo, add 5 μL of NLRP3 (ICE, YM2306T-H06MHS) enzyme solution to each well, centrifuge at 1000 rpm for 1 min at room temperature and react for 10 min. Then add 5 μL of ATP (Promega, V915A) substrate solution to each well for 90 min at room temperature; NLRP3 and ATP were prepared in 50 mM HEPES, 10 mM MgCl2, 0.01% Brij-35, 1 mM EGTA, and 2 mM DTT buffers at final concentrations of 15 nM and 1 μM, respectively. Subsequently, 10 μL ADP-Glo reagent solution (Promega, V9102) was added into each assay well, centrifuged at 1000 rpm for 1 min, and then incubated at room temperature for 45 min. Finally, 20 μL ADP-Glo detection solution (Promega, V9102) is added to each well, centrifuged at 1000 rpm for 1 min and reacted for 45 min at room temperature. The luminescence signal values were read using a BMG instrument and the IC50 values were determined by fitting the data to an S-shaped dose-response curve using nonlinear regression.
IC50 [1] [nM],IC50 (NLRP3) [nM],SMILES,IC50 (hERG) [µM]
10 to 100,10 to 100,Cc1cc(C(F)(F)F)cc(O)c1C1=NN=C(N[C@@H]2C[C@@H](F)CN(C)C2)SC1 [Compound 8],19.1
10 to 100,10 to 100,Cc1cc(C(F)(F)F)cc(O)c1C1=NN=C(N[C@H]2C[C@@](C)(O)C2)SC1 [Compound 10],> 30
< 10,10 to 100,Cc1cc2c(c(O)c1C1=NN=C(N[C@@H]3CCCN(C)C3)SC1)CCO2 [Compound 28],29.4
10 to 100,10 to 100,Cc1cc2c(c(O)c1C1=NN=C(N[C@H]3C[C@@](C)(O)C3)SC1)CCO2 [Compound 31],> 30
< 10,< 10,Cc1cc2c(c(O)c1C1=NN=C(N[C@H]3C[C@@](C)(O)C3)SC1)CC2 [Compound 59],> 30
< 10,< 10,Cc1cc2c(c(O)c1C1=NN=C(N[C@@H]3CCCN(C)C3)CS1)CCO2 [Compound 205],
10 to 100,10 to 100,Cc1cc(Cl)cc(O)c1C1=NN=C(N[C@H]2C[C@@](C)(N)C2)CS1 [Compound 206],
